Test results reported in ChEMBL document CHEMBL4814075, “Novel Thienopyrimidines as Acetyl-CoA Carboxylase Inhibitors for Treating Liver Diseases” (ACS Med Chem Lett, 2021).

biological target: Acetyl-CoA carboxylase 1 (Homo sapiens, UniProt Q13085); assay: Inhibition of ACC1 in human HepG2 cells assessed as lipid content using 13C-labelled acetate as substrate incubated for 1 hr followed by substrate addition and measured after 24 hrs by QTOF mass spectrometer; assay type: cell-based

Question: For `COc1ccc(F)cc1[C@H](Cn1c(=O)n(C(C)(C)C(=O)NS(=O)(=O)C2(C)CC2)c(=O)c2c(C)c(-n3nccn3)sc21)O[C@@H]1C[C@H]2CC[C@@H](C1)O2`, which EC50 is on record?
Answer: 0.3 nM

Question: How did the EC50 turn out when `Cc1c(-n2nccn2)sc2c1c(=O)n(C1(C(=O)NS(=O)(=O)C3(C)CC3)CC1)c(=O)n2C[C@H](O[C@@H]1C[C@H]2CC[C@@H](C1)O2)c1cc(F)ccc1OC(F)F` was run?
Answer: 0.9 nM

Question: How did the EC50 turn out when `COc1ccccc1[C@H](Cn1c(=O)n(C(C)(C)C(=O)NS(=O)(=O)C2(C)CC2)c(=O)c2c(C)c(-c3ncco3)sc21)O[C@@H]1C[C@H]2CC[C@@H](C1)O2` was run?
Answer: 1 nM

Question: For `COc1ccccc1[C@H](Cn1c(=O)n(C(C)(C)C(=O)NS(=O)(=O)C2(C)CC2)c(=O)c2c(C)c(-n3nccn3)sc21)O[C@@H]1C[C@H]2CC[C@@H](C1)O2`, which EC50 is on record?
Answer: 1 nM

Question: Which EC50 does the source give for `COc1ccccc1[C@H](Cn1c(=O)n(C2(C(=O)NS(=O)(=O)C3(C)CC3)CC2)c(=O)c2c(C)c(-n3nccn3)sc21)O[C@@H]1C[C@H]2CC[C@@H](C1)O2` here?
Answer: 1 nM

Question: How did the EC50 turn out when `COc1ccccc1[C@H](Cn1c(=O)n([C@H](C)C(=O)NS(=O)(=O)C2(C)CC2)c(=O)c2c(C)c(-c3ncco3)sc21)O[C@@H]1C[C@H]2CC[C@@H](C1)O2` was run?
Answer: 1 nM
